# Like-named read-outs stand apart in the source and are kept apart here.
# Assays:
# [1] = system: mesocorticolimbic dopaminergic neurons in the VTA; conditions: cited from earlier work; for firing rate of mesocorticolimbic dopaminergic neurons in the VTA: Prisco and Eposito 1995, Di Masico et al 1998
# [2] = system: NMDA-induced currents in pyramidal cells of the medial prefrontal cortex; experiment: Facilitation of NMDA-induced currents in pyramidal cells of the medial prefrontal cortex in vitro (brain slices, voltage-clamp); assay type: cell-based, rat
# [3] = system: dopamine cells in the VTA; experiment: In vivo assessment of dopamine neuron firing in rat ventral tegmental area
# Experimental: In vivo assessment of dopamine neuron firing in rat ventral tegmental area was conducted as described by Schilstrom et al. (Neuroscience 125:957-64, 2004). Briefly, male Sprague Dawley rats (250-300 g) were anesthetized with chloral hydrate (400 mg/kg i.p.) and mounted in a stereotactic frame. Anesthesia was maintained throughout the experiment with periodical injections of chloral hydrate and body temperature was kept at 37° C. with a rectal thermometer connected to an electrical heating pad. Recording electrodes were pulled in a Narishige vertical puller from borosilicate glass capillaries with outer and inner diameters of 1.50 and 1.17 mm, respectively, and filled with 2% Pontamine Sky Blue in 2 M NaCl. […] The rat was killed with an overdose of anesthetic, and the brain was removed and placed in 25% sucrose 10% paraformaldehyde solution. Sections of the VTA were cut ([…]) and stained with Neutral Red and the recording sites were verified by light microscopy.
structure (smiles),measurement,setting,value
COCCCC/C(=N\OCCN)c1ccc(C(F)(F)F)cc1 [fluvoxamine],firing rate of mesocorticolimbic dopaminergic neurons in the VTA,[1],slight inhibition
CNCCC(Oc1ccc(C(F)(F)F)cc1)c1ccccc1 (stereo not shown) [fluoxetine],firing rate of mesocorticolimbic dopaminergic neurons in the VTA,[1],slight inhibition
Cc1nc2n(c(=O)c1CCN1CCC(c3noc4cc(F)ccc34)CC1)CCCC2 [risperidone],effect on NMDA-induced currents in pyramidal cells of the prefrontal cortex,"[2]; bath application, holding potential −60 mV, FIG. 3",increase NMDA-induced currents
"CN(C)CCC[C@@]1(c2ccc(F)cc2)OCc2cc(C#N)ccc21 [escitalopram, (S)-1-[3-(dimethylamino)propyl]-1-(4-fluorophenyl)-1,3-dihydro-5-isobenzofurancarbonitrile]",effect on firing rate of dopamine cells in the VTA,"[3]; 320 μg/kg, FIG. 1",elevates firing rate statistically significant
same,effect on burst firing of dopaminergic cells in the VTA,"[3]; doses equal to and above 160 μg/kg, FIG. 2",increases burst firing statistically significant dose-dependently
same,effect on firing rate of dopamine cells in the VTA,"[3]; higher dose 640 μg/kg, FIG. 1",appears to be maintained
same,burst difference,"[3]; highest dose tested 640 μg/kg, FIG. 2",about 20%
CN(C)CCCC1(c2ccc(F)cc2)OCc2cc(C#N)ccc21 (racemic) [citalopram],Emax,"[3]; Rattus norvegicus, Neuron, FIG. 2, read-out: maximal response, burst difference",~10%
Fc1ccc([C@@H]2CCNC[C@H]2COc2ccc3c(c2)OCO3)cc1 [paroxetine],firing rate of mesocorticolimbic dopaminergic neurons in the VTA,[1],slight inhibition
CN[C@H]1CC[C@@H](c2ccc(Cl)c(Cl)c2)c2ccccc21 [sertraline],firing rate of mesocorticolimbic dopaminergic neurons in the VTA,[1],slight inhibition
CN(C)CCC[C@]1(c2ccc(F)cc2)OCc2cc(C#N)ccc21 [R-citalopram],effect on the escitalopram-induced increase of burst firing,"[3]; 320 μg/kg with escitalopram 320 μg/kg, FIG. 2",significantly inhibits the effect of escitalopram
same,effect on firing rate of dopamine cells in the VTA,"[3]; given alone, dose not stated, FIG. 1",unaffected
same,effect on burst firing of dopaminergic cells in the VTA,"[3]; given alone, FIG. 2",no effect on burst firing
same,effect on the escitalopram-induced increase of firing rate,"[3]; pre-treatment with 320 μg/kg before escitalopram 320 μg/kg, FIG. 1",blocked
CCOc1ccccc1OC(c1ccccc1)C1CNCCO1 (stereo not shown) [reboxetine],effect on NMDA-induced currents in pyramidal cells of the prefrontal cortex,[2],increases NMDA-induced currents
same,excitability and burst firing of dopaminergic neurons in the VTA,"[1]; Linner et al, 2001",enhances the excitability of dopaminergic neurons in the VTA with a preferential activation of their burst firing mode

# — patent US20070259952A1 (H. LUNDBECK A/S, priority 2006, published 2007)
